# Numbered stars: 1 amine (or outer) side, 2 acyl side, 3 side chain; on linkers, the order of the positions; unused ones are H or OH. Bridge positions count the residues as written; N and C are the ends. Square brackets hold non-standard residues; d marks the D form. Peptide text beside a SMILES is read from it. I, II: the chains in the order shown. Actinocin(9to1) = Cc1c2oc3c(C)ccc(C(=O)[*:1])c3nc-2c(C(=O)[*:2])c(N)c1=O; NMeV = CN[C@H](C(=O)O)C(C)C; Sar = CNCC(=O)O
# Experiments:
# [1] = system: Pestalotiopsis sydowiana MAFF No. 305755; test: Antibiotic sensitivity test for pathogenic filamentous fungi (mycelial mat diameter); assay type: cell-based; conditions: for Sensitivity of Pestalotiopsis sydowiana against antibiotic: 0.1, 1, 10 μg/ml in potato sucrose agar medium, 3 days (FIGS. 12, 13)
# Method: (§1) Pathogenic filamentous fungi were tested for their sensitivity against antibiotics belonging to actinomycin and polyen anti-fungal antibiotics shown to be produced by R-5 strain. First, actinomycin D or amphotericin B (polyen anti-fungal antibiotic) was dissolved to concentrations of 0.1, 1, and 10 μg/mil in potato sucrose agar medium cooled to about 45° C., and solidified. Mycelial disks with a diameter of 6 mm, which had been stamped out from mycelial mats of Phytophthora cinnamomi MAFF No. 305565 or Pestalotiopsis sydowiana MAFF No. 305755 pre-cultured for 7 days on potato sucrose agar medium, were inoculated onto the potato sucrose agar medium solidified as described above. Each diameter of the mycelial mats was measured with time for 3 days.
# [2] = system: Phytophthora cinnamomi MAFF No. 305565; test: as above; assay type: cell-based; conditions: for Sensitivity of Phytophthora cinnamomi against antibiotic: 0.1, 1, 10 μg/ml in potato sucrose agar medium, 3 days (FIGS. 10, 11)
# Method: as §1
Compound,Growth of the mycelia of Pestalotiopsis sydowiana ([1]; 10 μg/ml),Sensitivity of Pestalotiopsis sydowiana against antibiotic [1],Growth of the mycelial mat of Phytophthora cinnamomi ([2]; 10 μg/ml),Sensitivity of Phytophthora cinnamomi against antibiotic [2],Growth of the mycelia of Pestalotiopsis sydowiana ([1]; 0.1 μg/ml)
"Cc1c2oc3c(C)ccc(C(=O)N[C@@H]4C(=O)N[C@H](C(C)C)C(=O)N5CCC[C@H]5C(=O)N(C)CC(=O)N(C)[C@@H](C(C)C)C(=O)O[C@@H]4C)c3nc-2c(C(=O)N[C@@H]2C(=O)N[C@H](C(C)C)C(=O)N3CCC[C@H]3C(=O)N(C)CC(=O)N(C)[C@@H](C(C)C)C(=O)O[C@@H]2C)c(N)c1=O [actinomycin D] (I: T[dV]P[Sar][NMeV] / II: T[dV]P[Sar][NMeV]; ester I:1-I:C, II:1-II:C; linker I:N-II:N via Actinocin(9to1))",significantly suppressed the growth,weak sensitivity,completely stopped the growth,showed sensitivity,
C[C@@H]1[C@H](O)[C@@H](C)/C=C/C=C/C=C/C=C/C=C/C=C/C=C/[C@H](O[C@@H]2O[C@H](C)[C@@H](O)[C@H](N)[C@@H]2O)C[C@@H]2O[C@](O)(C[C@@H](O)C[C@@H](O)[C@H](O)CC[C@@H](O)C[C@@H](O)CC(=O)O[C@H]1C)C[C@H](O)[C@H]2C(=O)O [amphotericin B],,high sensitivity,,almost no sensitivity,completely suppressed the growth of the mycelia

# From patent US6544511B2, “Plant disease control agent” (Akatsuka Orchid Co., Ltd., priority 2000, dated 2003)
